Assay results published in patent US20240208928A1, “NOVEL COMPOUNDS” (Hoffmann-La Roche Inc., priority 2021, published 2024).

Legend:
Format in all cases: cell-based
[1] = target: T1, hERG channels (Homo sapiens, UniProt Q12809); assay: hERG screening assay (automated patch clamp); details: CHO crelox hERG cell line, whole-cell patch clamp SynchroPatch 384, 35-37° C.
T1 construct: cryopreserved at Evotec (Germany) ATCC PTA-6812; host or cells: CHO (Chinese hamster) crelox hERG cell line
Text: hERG Screening Assay The CHO crelox hERG cell line (ATCC reference Nr. PTA-6812, female Chinese hamster cells) was generated and validated at Roche. Ready-to-use frozen instant CHO-hERG cells were cryopreserved at Evotec (Germany) and used directly in the experiments. The extracellular solution contains (in mM): NaCl 150; KCl 4; CaCl2 1; MgCl2 1; HEPES 10; pH 7.2-7.4 with NaOH, osmolarity 290-330 mOsm. The internal solution contains (in mM): KCl, 10; KF, 100; NaCl, 10; HEPES, 10; EGTA, 20; pH=7.0-7.4 with KOH, osmolarity 260-300 mOsm. The effects of a compound on hERG K+-currents parameters will be evaluated at 2 concentrations in at least 4 cells. The hERG test is performed using automated patch clamp system SynchroPatch® 384 (Nanion Technologies GmbH, Germany). K+ currents are measured with the patch-voltage-clamp technique in the whole-cell configuration at 35-37° C. Cells were held at a resting voltage of −80 mV and they were stimulated by a voltage pattern shown in FIG. 1 to activate hERG channels and conduct outward IKhERG current, at a stimulation frequency of 0.1 Hz (6 bpm) The amplitudes of IKhERG were recorded in each concentration of drug and they were compared to the vehicle control values (taken as 100%) to define fractional blocks. The concentration-response data were fitted with the following relationship: where C is the concentration, • IC50 is the concentration producing 50% block • h is the Hill coefficient. Concentration-response curves were fitted by non-linear regression analysis using EworkBook suite (ID Business Solutions Ltd, UK). Data fit was done with the 4 Parameter Logistic Model (fit=(A+(B/(1+((x/C)^D)))), where A=0 and B=100).

[2] = target: T2, NLRP3 (Homo sapiens, UniProt Q96P20); assay: Human whole blood IL-1β release assay; design: Human whole blood in Li-heparin tubes was obtained from healthy donors; from tissue; host or cells: human whole blood from healthy donors, LPS-primed, nigericin-stimulated; details: 1 μg/ml LPS, nigericin 10 μM, IL-1β by AlphaLisa
T2 sequence (Q96P20 whole entry): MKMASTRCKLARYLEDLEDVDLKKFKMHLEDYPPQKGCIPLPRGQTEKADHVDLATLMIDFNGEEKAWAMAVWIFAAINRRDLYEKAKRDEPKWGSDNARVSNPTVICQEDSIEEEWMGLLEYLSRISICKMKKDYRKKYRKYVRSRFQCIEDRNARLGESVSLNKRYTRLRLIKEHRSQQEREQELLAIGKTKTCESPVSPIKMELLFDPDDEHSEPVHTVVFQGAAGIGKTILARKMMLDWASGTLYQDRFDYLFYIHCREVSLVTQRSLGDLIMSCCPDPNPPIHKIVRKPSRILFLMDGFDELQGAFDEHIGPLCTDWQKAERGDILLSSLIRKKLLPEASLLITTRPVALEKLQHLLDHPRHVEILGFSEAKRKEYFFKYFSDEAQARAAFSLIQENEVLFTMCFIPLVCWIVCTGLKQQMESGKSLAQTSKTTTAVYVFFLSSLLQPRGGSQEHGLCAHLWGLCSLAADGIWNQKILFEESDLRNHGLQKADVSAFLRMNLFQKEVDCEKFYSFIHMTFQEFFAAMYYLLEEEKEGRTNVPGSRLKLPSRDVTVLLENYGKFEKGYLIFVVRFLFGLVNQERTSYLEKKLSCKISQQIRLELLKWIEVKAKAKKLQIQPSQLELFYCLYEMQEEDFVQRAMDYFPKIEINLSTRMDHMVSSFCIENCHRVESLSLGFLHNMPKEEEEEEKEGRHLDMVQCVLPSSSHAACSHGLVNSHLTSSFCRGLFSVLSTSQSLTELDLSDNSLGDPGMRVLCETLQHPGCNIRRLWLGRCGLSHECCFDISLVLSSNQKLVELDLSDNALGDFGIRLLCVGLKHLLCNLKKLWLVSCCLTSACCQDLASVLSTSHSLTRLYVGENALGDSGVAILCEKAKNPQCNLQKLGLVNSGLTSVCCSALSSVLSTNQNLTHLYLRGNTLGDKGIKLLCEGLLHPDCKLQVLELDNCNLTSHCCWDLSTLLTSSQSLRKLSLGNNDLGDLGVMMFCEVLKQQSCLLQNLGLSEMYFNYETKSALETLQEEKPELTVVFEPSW
Description: For systemic delivery, the ability to inhibit NLRP3 when the compounds are present within the bloodstream is of great importance. For this reason, the NLRP3 inhibitory activity of a number of compounds in human whole blood was investigated in accordance with the following protocol.
Human whole blood in Li-heparin tubes was obtained from healthy donors from a volunteer donor panel. • 1. […] Incubate for 3 hrs at 37° C., 5% CO2 • 4. Add 10 μl nigericin (Sigma #N7143) (10 μM FAC) to all wells • 5. Incubate for 1 hr at 37° C., 5% CO2 • 6. At the end of the incubation period, spin plates at 300×g for 5 mins to pellet cells and remove 20 μl of supernatant and add to 96-well v-bottom plates for IL-1β analysis (note: these plates containing the supernatants can be stored at −80° C. to be analysed at a later date) • 7. IL-1β was measured according to the manufacturer protocol (Perkin Elmer-AlphaLisa IL-1 Kit AL220F-5000) • 8. IC50 data is fitted to a non-linear regression equation (log inhibitor vs response-variable slope 4-parameters)

[3] = target: T2, NLRP3; assay: THP-1 cells pyroptosis assay; design: Seed THP-1 cells (25,000 cells/well) containing 1.0 μg/ml LPS; host or cells: THP-1 cells, LPS-primed, nigericin-stimulated; details: 1.0 μg/ml LPS, nigericin 5 μM, resazurin readout
Description: The cells were routinely passaged and grown to confluency (˜10^6 cells/ml). On the day of the experiment, THP-1 cells were harvested and resuspended into RPMI medium (without FBS). […] To this diluted cell solution was added LPS (Sigma #L4524) to give a 1 μg/ml Final Assay Concentration (FAC). 40 μl of the final preparation was aliquoted into each well of a 96-well plate. The plate thus prepared was used for compound screening.
The following method step-by-step assay was followed for compound screening. • 1. […] Incubate for 3 hrs at 37° C., 5% CO2 • 4. Add 5 μl nigericin (Sigma #N7143) (FAC 5 μM) to all wells • 5. Incubate for 1 hr at 37° C., 5% CO2 • 6. At the end of the incubation period, spin plates at 300×g for 3 mins and remove supernatant • 7. Then add 50 μl of resazurin (Sigma #R7017) (FAC 100 μM resazurin in RPMI medium without FBS) and incubate plates for a further 1-2 hrs at 37° C. and 5% CO2 • 8. […] IC50 data is fitted to a non-linear regression equation (log inhibitor vs response-variable slope 4-parameters)

T1 sequence (Q12809 whole entry): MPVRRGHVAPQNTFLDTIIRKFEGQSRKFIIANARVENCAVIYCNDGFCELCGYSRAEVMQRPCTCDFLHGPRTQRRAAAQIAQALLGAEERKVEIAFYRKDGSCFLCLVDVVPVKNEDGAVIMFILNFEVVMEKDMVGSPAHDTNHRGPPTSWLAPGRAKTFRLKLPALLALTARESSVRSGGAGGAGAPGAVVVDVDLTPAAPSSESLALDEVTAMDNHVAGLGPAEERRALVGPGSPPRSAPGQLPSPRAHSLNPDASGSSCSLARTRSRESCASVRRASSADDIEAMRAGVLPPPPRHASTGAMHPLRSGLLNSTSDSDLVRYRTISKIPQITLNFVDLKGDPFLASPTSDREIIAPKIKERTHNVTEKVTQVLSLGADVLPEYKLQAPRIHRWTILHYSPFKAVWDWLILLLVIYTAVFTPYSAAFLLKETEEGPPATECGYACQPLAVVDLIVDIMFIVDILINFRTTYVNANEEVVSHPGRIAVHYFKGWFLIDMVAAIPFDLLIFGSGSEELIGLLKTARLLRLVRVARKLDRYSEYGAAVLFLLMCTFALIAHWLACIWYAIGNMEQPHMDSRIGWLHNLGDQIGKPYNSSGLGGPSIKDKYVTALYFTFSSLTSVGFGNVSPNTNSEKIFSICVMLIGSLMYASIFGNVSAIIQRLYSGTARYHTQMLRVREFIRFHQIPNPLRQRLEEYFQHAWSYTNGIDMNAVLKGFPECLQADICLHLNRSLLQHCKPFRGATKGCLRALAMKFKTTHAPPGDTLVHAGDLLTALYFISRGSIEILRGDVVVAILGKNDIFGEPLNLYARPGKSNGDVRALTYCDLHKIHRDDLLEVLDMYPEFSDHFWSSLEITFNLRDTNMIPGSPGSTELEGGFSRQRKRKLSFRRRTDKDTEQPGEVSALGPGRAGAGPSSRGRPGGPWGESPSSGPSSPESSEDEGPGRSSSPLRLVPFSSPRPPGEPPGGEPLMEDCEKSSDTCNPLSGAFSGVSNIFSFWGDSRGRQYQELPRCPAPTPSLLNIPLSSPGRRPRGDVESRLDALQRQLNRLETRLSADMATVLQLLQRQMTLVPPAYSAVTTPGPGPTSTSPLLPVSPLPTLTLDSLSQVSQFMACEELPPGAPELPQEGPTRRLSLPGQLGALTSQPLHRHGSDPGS

| SMILES | IC50 [1] [nM] | IC50 [2] [nM] | IC50 [3] [nM] |
| --- | --- | --- | --- |
| CCN1CCCC(Nc2cc(C)c(-c3ccc(C(F)(F)F)cc3O)nn2)C1 (stereo not drawn) [RE-A, 2-[6-[(1-ethyl-3-piperidyl)amino]-4-methyl-pyridazin-3-yl]-5-(trifluoromethyl)phenol, reference compound] | 1200 | – | – |
| CCN1CCC[C@@H](Nc2nnc(-c3ccc(C(F)(F)F)cc3O)n(C)c2=O)C1 [Example 19, 6-[[(3R)-1-Ethyl-3-piperidyl]amino]-3-[2-hydroxy-4-(trifluoromethyl)phenyl]-4-methyl-1,2,4-triazin-5-one;2,2,2-trifluoroacetic Acid] | > 20000 | 9.5 | 10 |
| CCN1CCC[C@@H](Nc2nnc(-c3ccc4c(c3O)CCO4)n(C)c2=O)C1 [Example 2, 6-[[(3R)-1-Ethyl-3-piperidyl]amino]-3-(4-hydroxy-2,3-dihydrobenzofuran-5-yl)-4-methyl-1,2,4-triazin-5-one] | > 20000 | – | – |
| CCN1CCC[C@@H](Nc2nnc(-c3c(C)cc(C(F)(F)F)cc3O)n(C)c2=O)C1 [Example 28, 6-[[(3R)-1-Ethyl-3-piperidyl]amino]-3-[2-hydroxy-6-methyl-4-(trifluoromethyl)phenyl]-4-methyl-1,2,4-triazin-5-one] | > 20000 | 31 | 13 |
| CCN1CCC[C@@H](Nc2nnc(-c3ccc(OC(F)(F)F)cc3O)n(C)c2=O)C1 [Example 27, 6-[[(3R)-1-Ethyl-3-piperidyl]amino]-3-[2-hydroxy-4-(trifluoromethoxy)phenyl]-4-methyl-1,2,4-triazin-5-one] | > 20000 | 14 | 12 |
| Cn1c(-c2ccc(C(F)(F)F)cc2O)nnc(NCc2cccc(O)c2)c1=O [Example 18, 6-[(3-Hydroxyphenyl)methylamino]-3-[2-hydroxy-4-(trifluoromethyl)phenyl]-4-methyl-1,2,4-triazin-5-one;2,2,2-trifluoroacetic Acid] | – | 8.1 | 1.2 |
| CCN1CCCC(Nc2nnc(-c3ccc(C(F)(F)F)cc3O)n(C)c2=O)C1 (stereo not drawn) [Example 1, 6-((1-ethylpiperidin-3-yl)amino)-3-(2-hydroxy-4-(trifluoromethyl)phenyl)-4-methyl-1,2,4-triazin-5(4H)-one] | > 20000 | 35 | 44 |
| Cn1c(-c2ccc(C(F)(F)F)cc2O)nnc(N[C@@H]2CCCN(C3CC3)C2)c1=O [Example 10, (R)-6-((1-Cyclopropylpiperidin-3-yl)amino)-3-(2-hydroxy-4-(trifluoromethyl)phenyl)-4-methyl-1,2,4-triazin-5(4H)-one] | > 20000 | 170 | 39 |
| CCN1CCC[C@@H](Nc2nnc(-c3ccc(C(C)=O)cc3O)n(C)c2=O)C1 [Example 25, 3-(4-Acetyl-2-hydroxy-phenyl)-6-[[(3R)-1-ethyl-3-piperidyl]amino]-4-methyl-1,2,4-triazin-5-one] | – | 15 | 9.3 |
| CCN1CCC[C@@H](Nc2nnc(-c3ccc(F)cc3O)n(C)c2=O)C1 [Example 21, 6-[[(3R)-1-Ethyl-3-piperidyl]amino]-3-(4-fluoro-2-hydroxy-phenyl)-4-methyl-1,2,4-triazin-5-one] | > 20000 | 28 | 58 |
| CN1C2CCC(Nc3nnc(-c4ccc(C(F)(F)F)cc4O)n(C)c3=O)C1CC2 (stereo not drawn) [Example 4, 3-[2-Hydroxy-4-(trifluoromethyl)phenyl]-4-methyl-6-[(8-methyl-8-azabicyclo[3.2.1]octan-2-yl)amino]-1,2,4-triazin-5-one;2,2,2-trifluoroacetic Acid] | – | 120 | 96 |
| CCN1CCC[C@@H](Nc2nnc(-c3ccc(Cl)cc3O)n(C)c2=O)C1 [Example 33, 3-(4-Chloro-2-hydroxy-phenyl)-6-[[(3R)-1-ethyl-3-piperidyl]amino]-4-methyl-1,2,4-triazin-5-one] | > 20000 | – | – |
